How the values were obtained:
[1] = biological target: T1, 3-oxo-5-alpha-steroid 4-dehydrogenase 2 (Homo sapiens, UniProt P31213); assay: Compound was tested for inhibitory activity against human prostatic Steroid 5-alpha-reductase; details: read-out: Ki app
T1 sequence (P31213 whole entry): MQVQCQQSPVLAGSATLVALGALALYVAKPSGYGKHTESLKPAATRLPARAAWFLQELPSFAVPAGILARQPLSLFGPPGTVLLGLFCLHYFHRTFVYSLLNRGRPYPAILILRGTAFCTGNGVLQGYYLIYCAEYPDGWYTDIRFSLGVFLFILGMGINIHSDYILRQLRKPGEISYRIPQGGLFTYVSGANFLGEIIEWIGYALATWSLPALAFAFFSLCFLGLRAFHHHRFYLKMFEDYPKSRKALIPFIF

[2] = Compound was tested for in vitro inhibitory activity against cynomolgus monkey Steroid 5-alpha-reductase; parameters: species or system Cercopithecidae
[3] = biological target: T1, 3-oxo-5-alpha-steroid 4-dehydrogenase 2; assay: Compound was tested for inhibitory activity against human prostatic Steroid 5-alpha-reductase at 5 uM concentration; NS - No significant inhibition.

Ki [1] [µM] | Ki [2] [µM] | Ki app [3] | SMILES
– | 0.004 | – | CC(C)N(C(=O)[C@H]1CCC2C3CC=C4C=C(C(=O)O)CC[C@]4(C)C3CC[C@@]21C)C(C)C (stereo partly specified)
0.05 | < 0.001 | – | CC(C)N(C(=O)[C@H]1CCC2C3CC[C@H]4C=C([N+](=O)[O-])CC[C@]4(C)C3CC[C@@]21C)C(C)C (stereo partly specified)
– | – | Not Active | CC(C)N(C(=O)[C@H]1CC[C@H]2[C@@H]3CCc4cc([N+](=O)[O-])ccc4[C@H]3CC[C@]12C)C(C)C

More lines, now with the values behind:

SMILES | Ki [1] [µM] | Ki [2] [µM] | Ki app [3]
CC(C)N(C(=O)[C@H]1CCC2C3CC=C4C=C([N+](=O)[O-])CC[C@]4(C)C3CC[C@@]21C)C(C)C (stereo partly specified) | 0.59 | – | –
CC(C)N(C(=O)[C@H]1CC[C@H]2[C@@H]3CCc4cc(C(=O)O)ccc4[C@H]3CC[C@]12C)C(C)C | 0.02 | – | –

— ChEMBL document CHEMBL1125939, “Inhibition of steroid 5-reductase by 3-nitrosteroids: synthesis, mechanism of inhibition, and in vivo activity” (Bioorg Med Chem Lett, 1991)
